Values of other authors in patent US10342235B2, “Formulations comprising phosphite” (Ceradis B.V., priority 2015, dated 2019).

Tested on: rodents
Conditions: oral administration, dermal administration, inhalatory exposure

Substance: potassium phosphite
- Toxicity in rodents: low toxicity
